The source of these data is patent US20130203789A1, “Novel Inhibitors of LYN Kinase and Methods Using Same” (VASSA INFORMATICS, priority 2012, published 2013).

One experiment relates to LYN. Particulars: BT549 cells, Western blot; cited from earlier work. In general terms: In western blotting, separated proteins are transferred to a membrane and probed.
Experiment [1] concerns mesenchymal breast cancer lines. To be noted: at concentrations that inhibit LYN kinase activity; cited from earlier work.
The test system is the same in experiment [2]. To be noted: at concentrations that inhibit LYN kinase activity; cited from earlier work. This is another data set of the same source.
The target of another experiment is T1, Pim-1(h) (Homo sapiens, UniProt P11309).
T1 construct: purchased Millipore (Dundee UK), contract testing service
Description: Millipore kinase profiling, Pim-1. The format is biochemical. Particulars: 100 μM concentration. Here is the method: (§1) The three compounds identified in Example 1 were tested for kinase activity at Millipore (Dundee UK). The compounds were shipped as 10 mM stocks in DMSO as per Millipore testing standards. The testing consisted of two initial phases:
(§2) (a) Profiling against a set of approximately 60 kinases, selected as representative of all kinases and current kinase drug targets, to determine the selectivity of the compounds; and, (b) IC50 testing againstr EGFR, the kinase target of the initial search template molecule.

The target of the next experiment is T2, WNK3(h) (Homo sapiens, UniProt Q9BYP7).
T2 construct: purchased Millipore (Dundee UK), contract testing service
Description: Millipore kinase profiling, WNK3. To be noted: 100 μM concentration. The format is biochemical. Here is the method: as §1, §2

For the next experiment, the target named is CamK1 (Homo sapiens, UniProt Q14012). The experiment in a line: Kinase profiling, CamK1. The format is biochemical. To be noted: 100 μM concentration. Here is the method:
(§3) FIG. 9 is a schematic kinome tree illustrating the evolutionary relationships between 299 kinases. The inhibition of 68 representative kinases by VI301 at 100 μM concentration was evaluated.
as §1, §2

For the next experiment, the target named is Abl kinase (BCR-Abl) (Homo sapiens, UniProt P00519). The experiment in a line: Kinase profiling, Abl. The format is biochemical. Particulars: 100 μM concentration. Here is the method:
as §3, §1, §2

Another experiment deals with T3, Lyn(h) (Homo sapiens, UniProt P07948).
T3 construct: purchased Millipore (Dundee UK), contract testing service
Description: Millipore kinase profiling, Lyn. In kind it is biochemical. Particulars: 100 μM concentration. Here is the method: as §1, §2

One may read the inhibition as the drop in the measured response relative to a control, in per cent.

T3 sequence (P07948 1-491 isoform P07948-2): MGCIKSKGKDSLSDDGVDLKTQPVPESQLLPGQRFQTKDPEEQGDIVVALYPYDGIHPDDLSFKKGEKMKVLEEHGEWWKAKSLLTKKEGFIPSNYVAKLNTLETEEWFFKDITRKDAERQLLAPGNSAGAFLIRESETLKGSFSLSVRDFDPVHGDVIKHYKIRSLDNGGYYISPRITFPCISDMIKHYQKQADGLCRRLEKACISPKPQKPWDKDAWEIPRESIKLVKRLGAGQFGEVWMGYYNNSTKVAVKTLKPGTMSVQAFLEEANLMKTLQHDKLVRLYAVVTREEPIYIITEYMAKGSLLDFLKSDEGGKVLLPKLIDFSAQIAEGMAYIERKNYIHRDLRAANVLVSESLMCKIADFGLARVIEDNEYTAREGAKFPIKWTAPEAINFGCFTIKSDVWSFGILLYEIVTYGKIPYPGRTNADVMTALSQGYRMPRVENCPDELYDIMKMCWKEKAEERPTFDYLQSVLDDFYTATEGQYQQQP
T1 sequence (P11309 whole entry): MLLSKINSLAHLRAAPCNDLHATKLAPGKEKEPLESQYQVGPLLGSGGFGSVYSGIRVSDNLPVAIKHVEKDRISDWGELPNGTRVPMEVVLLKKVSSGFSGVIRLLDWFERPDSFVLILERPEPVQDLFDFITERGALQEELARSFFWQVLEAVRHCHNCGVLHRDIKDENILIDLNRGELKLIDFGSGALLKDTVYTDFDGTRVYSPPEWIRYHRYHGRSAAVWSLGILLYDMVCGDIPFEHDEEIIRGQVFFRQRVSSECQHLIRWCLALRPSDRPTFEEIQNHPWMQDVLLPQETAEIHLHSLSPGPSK
Chain of Abl kinase (BCR-Abl) (P00519 27-1130 limits assumed): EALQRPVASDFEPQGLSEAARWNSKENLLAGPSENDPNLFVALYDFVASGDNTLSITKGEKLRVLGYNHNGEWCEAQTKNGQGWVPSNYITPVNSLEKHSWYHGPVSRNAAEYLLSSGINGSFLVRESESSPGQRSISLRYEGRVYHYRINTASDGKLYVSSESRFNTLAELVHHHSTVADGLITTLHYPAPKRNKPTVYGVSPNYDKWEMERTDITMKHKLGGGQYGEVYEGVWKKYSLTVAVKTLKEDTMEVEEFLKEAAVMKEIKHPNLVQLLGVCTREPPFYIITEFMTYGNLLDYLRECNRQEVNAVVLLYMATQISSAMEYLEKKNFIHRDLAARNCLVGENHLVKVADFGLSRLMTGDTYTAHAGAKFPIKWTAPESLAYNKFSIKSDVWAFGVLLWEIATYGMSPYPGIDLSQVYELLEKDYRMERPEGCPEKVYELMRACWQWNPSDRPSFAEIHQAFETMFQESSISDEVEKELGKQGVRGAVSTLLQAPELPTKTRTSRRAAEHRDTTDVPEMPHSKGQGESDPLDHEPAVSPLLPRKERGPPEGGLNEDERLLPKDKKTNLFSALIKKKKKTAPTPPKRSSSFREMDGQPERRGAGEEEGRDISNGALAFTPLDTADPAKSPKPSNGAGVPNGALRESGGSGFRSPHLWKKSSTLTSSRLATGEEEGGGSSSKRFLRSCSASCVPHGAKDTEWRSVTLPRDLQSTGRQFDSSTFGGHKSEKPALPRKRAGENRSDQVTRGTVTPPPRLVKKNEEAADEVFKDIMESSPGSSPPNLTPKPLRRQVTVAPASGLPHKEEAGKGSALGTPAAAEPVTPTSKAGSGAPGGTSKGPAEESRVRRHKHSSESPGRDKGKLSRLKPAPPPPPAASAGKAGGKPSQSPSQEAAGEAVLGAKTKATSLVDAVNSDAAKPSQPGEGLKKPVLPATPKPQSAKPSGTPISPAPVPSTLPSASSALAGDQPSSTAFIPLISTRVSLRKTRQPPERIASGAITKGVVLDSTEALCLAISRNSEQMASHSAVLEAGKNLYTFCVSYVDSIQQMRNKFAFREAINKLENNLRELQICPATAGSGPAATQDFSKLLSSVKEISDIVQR
T2 sequence (Q9BYP7 whole entry): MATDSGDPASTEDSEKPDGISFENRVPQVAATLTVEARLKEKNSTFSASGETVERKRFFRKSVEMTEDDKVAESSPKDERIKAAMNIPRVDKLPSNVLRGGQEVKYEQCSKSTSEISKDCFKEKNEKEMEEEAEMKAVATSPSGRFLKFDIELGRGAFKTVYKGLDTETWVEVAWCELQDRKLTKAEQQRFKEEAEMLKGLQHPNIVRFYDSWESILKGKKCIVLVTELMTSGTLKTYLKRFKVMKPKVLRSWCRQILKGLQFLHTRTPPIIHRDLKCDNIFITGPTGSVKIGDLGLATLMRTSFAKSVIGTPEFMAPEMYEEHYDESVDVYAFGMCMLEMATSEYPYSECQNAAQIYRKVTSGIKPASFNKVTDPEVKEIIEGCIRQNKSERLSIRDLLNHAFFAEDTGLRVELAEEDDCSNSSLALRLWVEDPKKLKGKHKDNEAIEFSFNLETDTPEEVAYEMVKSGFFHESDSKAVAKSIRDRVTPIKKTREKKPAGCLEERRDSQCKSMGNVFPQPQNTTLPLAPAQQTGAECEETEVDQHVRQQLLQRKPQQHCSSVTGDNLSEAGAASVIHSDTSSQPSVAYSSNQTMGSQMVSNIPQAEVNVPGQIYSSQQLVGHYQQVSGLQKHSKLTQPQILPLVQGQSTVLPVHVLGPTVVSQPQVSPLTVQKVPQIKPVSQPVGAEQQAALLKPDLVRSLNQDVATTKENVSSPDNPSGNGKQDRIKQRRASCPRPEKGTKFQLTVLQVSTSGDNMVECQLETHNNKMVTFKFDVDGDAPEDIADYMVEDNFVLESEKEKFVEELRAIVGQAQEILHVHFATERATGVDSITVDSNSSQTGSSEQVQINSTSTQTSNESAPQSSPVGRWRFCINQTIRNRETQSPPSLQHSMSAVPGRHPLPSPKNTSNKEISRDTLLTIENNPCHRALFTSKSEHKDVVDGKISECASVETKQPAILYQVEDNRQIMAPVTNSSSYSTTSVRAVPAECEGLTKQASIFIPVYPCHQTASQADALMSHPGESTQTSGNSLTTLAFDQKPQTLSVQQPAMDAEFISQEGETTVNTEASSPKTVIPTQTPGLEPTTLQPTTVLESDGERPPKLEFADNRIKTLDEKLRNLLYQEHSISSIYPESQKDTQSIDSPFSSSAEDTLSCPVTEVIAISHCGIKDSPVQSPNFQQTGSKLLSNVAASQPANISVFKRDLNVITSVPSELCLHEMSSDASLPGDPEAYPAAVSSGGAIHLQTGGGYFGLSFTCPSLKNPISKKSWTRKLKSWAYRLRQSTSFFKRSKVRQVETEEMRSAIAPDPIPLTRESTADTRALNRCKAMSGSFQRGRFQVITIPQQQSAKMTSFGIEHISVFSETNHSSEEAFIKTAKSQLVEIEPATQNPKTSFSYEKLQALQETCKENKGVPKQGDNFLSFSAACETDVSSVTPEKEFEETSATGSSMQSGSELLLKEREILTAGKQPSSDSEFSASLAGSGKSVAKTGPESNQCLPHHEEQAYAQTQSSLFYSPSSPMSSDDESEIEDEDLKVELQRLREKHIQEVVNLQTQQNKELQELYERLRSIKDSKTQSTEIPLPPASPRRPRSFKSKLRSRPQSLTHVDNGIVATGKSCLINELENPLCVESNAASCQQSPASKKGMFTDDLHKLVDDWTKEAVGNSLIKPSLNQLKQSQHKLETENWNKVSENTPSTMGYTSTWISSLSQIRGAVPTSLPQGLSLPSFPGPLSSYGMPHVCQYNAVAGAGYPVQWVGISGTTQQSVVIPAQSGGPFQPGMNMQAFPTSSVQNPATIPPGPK

Turning to `Cc1nc(Nc2ncc(C(=O)Nc3c(C)cccc3Cl)s2)cc(N2CCN(CCO)CC2)n1` [Dasatinib, N-(2-chloro-6-methylphenyl)-2-[[6-[4-(2-hydroxyethyl)-1-piperazinyl]-2-methyl-4-pyrimidinyl]amino]-5-thiazole carboxamide], the “phosphorylated (activated) LYN” value in the experiment on LYN is listed as “decreased phosphorylated (activated) LYN”. For the same compound, the cell proliferation entry in experiment [1] is listed as “not proliferation”. Besides, the cell invasion entry in experiment [2] was “blocked invasion”.

Regarding `Cc1nn2c(ncc3c(=O)n(-c4ccccc4)ccc32)c1-c1ccccc1` [VI301, 2-methyl-3,7-diphenylpyrazolo[1,5-a]pyrido[3,4-e]pyrimidin-6(7H)-one], the inhibition at 100 µM was found to be 12% at Pim-1(h); 3% on WNK3(h); 26% against CamK1; 106% on Abl kinase (BCR-Abl); 95% against Lyn(h). For the same compound, at Lyn(h), the “inhibition of LYN kinase (in words)” value is listed as “good inhibition”.
